From patent EP0053015A1, “1-Phenylthio-2-aminopropane derivatives, their production and use” (Takeda Chemical Industries, Ltd., priority 1980, dated 1982) come the findings set out here.

Molecules are shown by their SMILES. Where a name gives a salt, the structure may show the parent alone. Read-outs that look alike come from different tables or passages of the source.

Format in all cases: in vivo
Test [1] is described as follows: Suppression of food intake in mice. The following applies: Mus musculus, male ICR mice, 50 mg/kg oral, given 0.5 hour before feeding, food intake of control animals = 100%, (NS) = not statistically significant. The procedure:
Male ICR mice, 7 weeks old, were acclimatised to six-hours-a-day feeding (CE-2 powder, Clea Japan) for 7 days and those animals showing a constant food intake were used in groups of 6 individuals. Each test compound was dissolved in a 5% aqueous solution of gum arabic and orally administered to mice at a dose level of 50 mg/kg as compound (I) at 0.5 hour before feeding on the 8th day. Control animals received a 5% solution of gum arabic only. Each figure in the table is the percent food intake with the food intake of control animals being taken as 100%.
In the table, the figures accompanied by NS in parentheses mean that the difference from control was not statistically significant. All other figures were significant at from P<0.02 to P<0.001.

Test [2] in a line: Inventors' study of antiobesity, antidiabetic and anorectic effect of prior-art compounds. Conditions: according to the inventors' study; result in words. An excerpt:
South African Patent No. 67/3108 describes the anti- depressive activity of 1-(4-chlorophenylthio)-2-aminopropane of the formula: [drawing 8] but this patent also says nothing about antiobesity or antidiabetic action. […] In contrast, the compounds of this invention exert strong and long-lasting antiobesity and antidiabetic effects because of their having the particular substituent (halogen) at the particular (para) position of the benzene ring and having the particular secondary amine-type structure.

The test system of test [3] is fatty acid synthesis. Nature of the test: Inhibition of fatty acid synthesis (glucose-U-14C incorporation into fatty acid fractions). The following applies: Rattus norvegicus, Sprague-Dawley rats, 20 mg/kg oral, glucose-U-14C 30 minutes later, sacrificed after 60 minutes, versus distilled water control. Here is the method: Male 7-week-old Sprague-Dawley rats were acclimatised to 2-hours-a-day feeding (CE-2 powder, Clea Japan) for 10 days and assigned to groups of 5 animals. The animals were orally given 20 mg/kg of l-(4-chlorophenylthio)-2-methylaminopropane fumarate as dissolved in distilled water, and,30 minutes thereafter, glucose-U-^14C (85 pCi/3 g/kg) was orally administered. After 60 minutes, each animal was sacrificed and the radioactivities incorporated into the fatty acid fractions of the liver and the epididymal adipose tissues were determined.

A short description of test [4]: Suppression of food intake in rats. The following applies: male Sprague-Dawley rats fasted for 24 hours, 20 mg/kg by oral gavage, food given after 0.5 hour; control = 100%; ** P<0.01, * P<0.05. The procedure: Male 7-week-old rats of Sprague-Dawley strain were fasted for 24 hours and assigned to groups of 6 animals. A solution of .20 mg/kg of each test compound in distilled water was administered by oral gavage and after 0.5 hour, food (CE-2 powder) was given. The food intake in each group was measured at 1 hour and 2 hours thereafter and the results were compared with the food intake of control animals given distilled water only. The figures in the table denote the food intake percents, with the food intake of control animals being taken as 100%. By the term "gavage" is meant compulsory feeding.

[5] abbreviates: 1 h, read-out: Food intake (%) 1 hour after administration.
Setting [6] is: read-out: Food intake (%) 0.5 hour after administration.

Take `CNC(C)CSc1ccc(Cl)c(Cl)c1` (racemic) [Example 7, l-(3,4-dichlorophenylthio)-2-methylamino-propane]: the values for the response vs control in vivo at 50 mg/kg in test [1] (setting [5]) and in test [1] (setting [6]) were 63.2% and 54.9%, respectively.

Turning to `CC(N)CSc1ccc(Cl)cc1` (centres unmarked) [1-(4-chlorophenylthio)-2-aminopropane, reference compound], the response vs control in vivo at 50 mg/kg in test [1] (setting [5]) amounted to 85.5%; in test [1] (setting [6]) it was 69.5%. Moreover, in test [2], the anorectic effect entry is given as “only a weak transient anorectic effect”.

With `CNC(C)CSc1ccccc1` (centres unmarked) [1-phenylthio-2-methyl-aminopropane, reference compound], the response vs control in vivo at 50 mg/kg in test [1] (setting [5]) came to 112%; in test [1] (setting [6]), 106%.

As for `CNC(C)CSc1ccc(Cl)cc1.O=C(O)/C=C/C(=O)O` (centres unmarked) [Example 1, 1-(4-chlorophenylthio)-2-methylaminopropane fumarate], the inhibition at 20 mg/kg came out at 58.8% in test [3] (adipose tissues, read-out: relative inhibition rate, radioactivity incorporated into the fatty acid fraction of the epididymal adipose tissues) and 46.6% in test [3] (liver, read-out: relative inhibition rate, radioactivity incorporated into the fatty acid fraction of the liver). In addition, the response vs control in vivo at 50 mg/kg in test [1] (setting [5]) is 55.2%; in test [1] (setting [6]), 43.2%. For the same compound, in test [4], the “Food intake (%) 1 hour after administration” value is reported as 43.9* %. The “Food intake (%) 2 hours after administration” value in test [4] was 61.9** %.

On to `CCNC(C)CSc1ccc(Cl)cc1` (centres unmarked) [Example 3, 1-(4-chlorophenylthio)-2-ethylaminopropane fumarate], for which the results for the response vs control in vivo at 50 mg/kg in test [1] (setting [5]) and in test [1] (setting [6]) were 69.4% and 40.7%, respectively.

`CC(CSc1ccc(Cl)cc1)NCCO` (centres unmarked) [Example 4, 1-(4-chlorophenylthio)-2-(2-hydroxyethylamino)propane fumarate]: the response vs control in vivo at 50 mg/kg in test [1] (setting [5]) came to 67.6%; in test [1] (setting [6]) it was 65.9%.

For the compound `CNC(C)CSc1ccc(F)cc1` (centres unmarked) [Example 5, 1-(4-fluorophenylthio)-2-methylaminopropane], the response vs control in vivo at 50 mg/kg in test [1] (setting [5]) was determined as 66.5%; in test [1] (setting [6]) it was 57.9%.

As for `CNC(C)CSc1ccc(Br)cc1` (centres unmarked) [Example 6, 1-(4-bromophenylthio)-2-methylamino-propane], the results for the response vs control in vivo at 50 mg/kg in test [1] (setting [5]) and in test [1] (setting [6]) were 72.1% and 70.8%, respectively.

In the case of `CN[C@@H](C)CSc1ccc(Cl)cc1` [Example 8, (S)-l-(4-chlorophenylthio)-2-methylaminopropane fumarate], in test [4], the “Food intake (%) 1 hour after administration” value is listed as 38.8** % and the “Food intake (%) 2 hours after administration” value is 56.1** %.
